Experiment [1] has as its target T1, FmlHLD (Escherichia coli, UniProt P77588).
T1 construct: 6xHis (C); made in house; host or cells: E. coli C600, periplasm, pTRC99a
The experiment is described as follows: Immunofluorescence of FmlHLD binding to human bladder and kidney tissue. Set-up: species or system E. coli. The note with it: 50 μg/ml FmlHLD WT incubated with 100 μM compound. Here is the method: The relevance of FmlH and FmlH-targeting galactosides in human UTI was assessed by performing immunofluorescence analysis of wild-type (WT) FmlHLD or mutant (K132Q) FmlHLD binding to human bladder and non-malignant kidney biopsied tissue in the presence or absence of 29β-NAc.
Frozen, de-identified human bladder and kidney sections were obtained from the Tissue Procurement Core and stored stably at −80° C. These tissue section slides were removed from the freezer and allowed to thaw at room temperature for 10-20 min. After applying a hydrophobic barrier pen around the tissue, slides were rehydrated in 200 μl buffer (5% BSA, 0.2% Triton X-100 in PBS) for 10 min. Buffer was gently aspirated and slides were blocked for 1 hr at room temperature with 200 μl buffer. Thereafter, buffer was gently aspirated and slides were incubated with 200 μl sample overnight at 4° C. Samples diluted in buffer included 50 μg/ml FmlHLD wild-type (WT), 50 μg/ml FmlHLD K132Q, and 50 μg/ml FmlHLD WT incubated with 100 μM 29β-NAc. Samples were gently aspirated and slides were washed three times in buffer for 5 min each. Next, slides were incubated with a mouse anti-FmlH polyclonal antibody (1:500 dilution in buffer) for 1 hr at room temperature. […]

The target in experiment [2] is T1, FmlHLD. The experiment is described as follows: biochemical. The class given is binding, E. coli. The note with it: for Kd: immobilized ser-TF. The source says: Bio-layer interferometry (BLI) was used to quantitate the binding affinity of select galactosides to FmlH.
Thereafter, pins were dipped in PBS for 120 s and transferred to protein samples (varying concentration of FmlHLD or fixed concentration of FmlHLD with varying concentration of galactoside compounds) for association for 300-600 s.

The target in experiment [3] is T1, FmlHLD. The experiment is described as follows: biochemical. It counts as binding, E. coli. In outline:
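Sialidase-treated bovine submaxillary mucin (ds-BSM) coated wells, BSA-blocked, then biotinylated FmlH^LD (20 μg/mL) with or without compound for 1 h at room temperature. Bound lectin detected by streptavidin-HRP/TMB, A450.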

The subject of another experiment is CFT073. Put plainly: Murine chronic UTI (chronic cystitis) model, bacterial titers in bladder and kidney. The class given is in vivo, C3H/HeN mice. The conditions noted are these: 50 mg/kg transurethral, 6 hours post treatment, relative to vehicle control. Here is the method:
To assess therapeutic efficacy, galactosides were evaluated for their ability to reduce bacterial burdens in the urinary tracts of C3H/HeN mice during chronic UTI. 7-8 week old female C3H/HeN mice were obtained from Envigo (Indianapolis, IN). Mice were anesthetized and inoculated via transurethral catheterization with 50 μl of CFT073 bacterial suspension (˜1-2*10^8 CFU in total) in phosphate-buffered saline (PBS). Chronic cystitis in C3H/HeN mice was defined as urine titers of >10^4 CFU/ml lasting at least two to four weeks, as well as bladder inflammation and edema at euthanasia. […] Accordingly, high levels of CFT073 kidney colonization were also observed in control (vehicle-treated) animals. […] Compounds tested were: 29β-NAc (50 mg/kg), mannoside 4Z269 (a type 1 pilus adhesin FimH inhibitor, 50 mg/kg), or 29β-NAc+4Z269. Mice were sacrificed 6 hours post treatment and bacteria colonizing the bladder or kidney were plated for quantification. Data are presented in FIG. 9, panels A and B, as bacterial titers of CFT073 in each organ in each condition. The horizontal lines represent the means. Asterisks indicate significance (*P<0.05, **P<0.01, ***P<0.001, ****P<0.0001, two-tailed Mann-Whitney U test). Each condition was measured in two or three independent experiments with 4 or 5 mice per group per experiment.

For experiment [4], the target named is T2, FmlH lectin domain (FmlH^LD; first 182 amino acids of CFT073 FmlH = signal sequence and lectin domain, C-terminal 6×-his tag, wild-type, biotinylated) (Escherichia coli, UniProt A0A0H2V7F6).
T2 construct: biotinylated for ELISA; wild type
The experiment is described as follows: ELISA-based competition assay: inhibition of biotinylated FmlH lectin domain binding to surface-immobilized desialylated bovine submaxillary mucin (ds-BSM). Set-up: species or system E. coli (uropathogenic, urosepsis isolate CFT073). The note with it: read-out: FmlH (FmlH^LD) lectin domain (LD) IC50, FIG. 14, 20 μg/mL biotinylated FmlH^LD, compounds serially diluted 2×, 1 hour at room temperature, ds-BSM coated wells, absorbance 450 nm. The method, then: Thereafter, wells were incubated with 200 μl blocking buffer (PBS+1% BSA) for 2 hours at 23° C., followed by incubation with 100 μl biotinylated FmlHLD diluted in blocking buffer to 20 μg/ml in the presence or absence of the tested compounds for 1 hr at 23° C. After washing 3× with PBS+0.05% TWEEN-20, 100 μl Streptavidin-HRP conjugate (BD Biosciences; 1:2000 dilution in blocking buffer) was added to each well for 1 hr at 23° C. After a final round of washing, plates were developed with 100 μl Tetramethylbenzidine (TMB, BD Biosciences) substrate, quenched within 1-2 min with 50 μl […], and absorbance measured at 450 nm.
Briefly, 1 μg bovine submaxillary mucin (Sigma) in 100 uL PBS were incubated with Immulon 4HBX 96-well plates overnight prior to treatment with 1 mU Arthrobacter ureafaciens sialidase for 1 hour at 37° C. to remove terminal sialic acid sugars. Wells were then blocked with 200 μL PBS+1% BSA for 2 hours at room temperature. Biotinylated FmlH^LD was diluted to 20 μg/mL in blocking buffer and incubated in the presence or absence of compounds serially diluted 2× down eight rows for 1 hour at room temperature. […] Total bound portion concentration was measured by the absorbance at 450 nm. IC50s were determined using the Graphpad Prism software.
(In general: An ELISA detects its analyte on a solid surface through an enzyme-linked reagent.)

T1 sequence (P77588 25-182): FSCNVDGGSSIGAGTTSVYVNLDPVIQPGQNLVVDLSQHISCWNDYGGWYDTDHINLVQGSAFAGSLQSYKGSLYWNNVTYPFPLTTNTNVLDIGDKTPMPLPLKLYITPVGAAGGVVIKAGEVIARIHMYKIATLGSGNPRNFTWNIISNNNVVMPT
T2 sequence (A0A0H2V7F6 entry or part of it): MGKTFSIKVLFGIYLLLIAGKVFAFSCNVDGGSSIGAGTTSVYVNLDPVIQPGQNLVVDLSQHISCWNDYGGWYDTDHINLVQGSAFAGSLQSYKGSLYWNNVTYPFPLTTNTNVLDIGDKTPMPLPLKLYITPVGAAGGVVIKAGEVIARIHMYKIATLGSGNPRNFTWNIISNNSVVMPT

For orientation: Kd means the constant that tells how readily two partners part at equilibrium. The inhibition is how much of the control response was suppressed. For the molecule `CC(=O)N[C@H]1[C@H](Oc2ccccc2-c2cccc(C(=O)O)c2)O[C@H](CO)[C@H](O)[C@@H]1O` [Compound 29β-NAc, 2′-(2-acetamido-2-deoxy-β-D-galactopyranosyloxy)-[1,1′-Biphenyl]-3-carboxylic acid], the “FmlHLD binding to human kidney tissue” value at FmlHLD [1] was “prevented binding to human kidney tissue”. The “enhancement in binding affinity relative to Gal” value on FmlHLD [2] (BLI Kd ratio) is recorded as ~7,800 fold. Besides, the Kd was 0.089 µM at FmlHLD [2] (Kd (μM), inhibitory constants, fixed FmlHLD, varying galactoside in solution) and approximately 0.09 µM on FmlHLD [2] (Kd, galactoside in solution). The “inhibitory potency against FmlH, in words” value on FmlHLD [3] (ELISA-based competition assay) is recorded as “most potent”. This molecule also registered an IC50 on FmlHLD [3] (IC50 (μM), Table 5, Gal and GalNAc inhibition of FmlH) of 0.64 µM. The inhibition at 1 µM on FmlHLD [3] (read-out: PI1 (percent inhibition), galactoside at 1 μM, mean with standard error of the mean) was 54.7 ± 2.8%. Also, the inhibition at 10 µM on FmlHLD [3] (read-out: PI10 (percent inhibition), galactoside at 10 μM, mean with standard error of the mean) worked out at 93%. Besides, the inhibition at 100 µM at FmlHLD [3] (read-out: PI100 (percent inhibition), galactoside at 100 μM, mean with standard error of the mean) came out at 99.5 ± 2.2%. Further, in the experiment with CFT073, the “bacterial titers of CFT073 in the bladder” value is reported as “significant reduction of CFT073 in the bladders”. Also, the “bacterial titers of CFT073 in the kidney” value in the experiment with CFT073 is recorded as “even greater clearance of CFT073 from the kidneys”.
Turning to `CC(=O)N[C@H]1[C@H](Oc2ccccc2-c2cccc(C(=O)O)c2)O[C@H](CO)[C@H](O)[C@@H]1O` [D00014 row 1, 2′-(2-acetamido-2-deoxy-β-D-galactopyranosyloxy)-[1,1′-Biphenyl]-3-carboxylic acid], the IC50 in experiment [4] came out at 650 nM.

Values taken from patent publication US11773127B2, “Compounds and methods for treating bacterial infections” (Washington University, priority 2017, dated 2023).
